According to patent publication US11420962B2, “Indene derivatives useful in treating pain and inflammation” (TARO PHARMACEUTICALS INC., priority 2018, dated 2022):

Columns and labels:
[1] = test system: Rat DRG; experiment: Rat dorsal root ganglion excitability response (EFS, Ca2+ transients); assay type: cell-based; settings: Rattus norvegicus; Table 3; electrical field stimulation, Ca5 indicator; read-out: Scoring (EC50, Rat DRG excitability)
Outline: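 Adult rat DRG cells cultured for 2 days were loaded with the Ca5 dye 1 h before electrical field stimulation under four protocols. Compounds were tested at six concentrations (typically top 30 μM, 1:3 steps, duplicate), added either 24 h before or directly before EFS. The read-out was the per-well peak/baseline fluorescence ratio change, with imaging used to check for toxicity.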

[2] = test system: T cells; experiment: T cell proliferation (anti-CD3/anti-CD28 dynabeads, CCK-8); assay type: cell-based, mice; settings: Table 4, mouse T cells, 72 hours after dynabeads, read-out: Scoring (IC50, cell proliferation)
Procedure: Spleens were obtained from six male, CD-1 outbred mice, approximately 8 weeks old. Cells were harvested under sterile conditions by forcing each spleen though a cell filter (pore size 100 μm diameter). A homogenous cell suspension was obtained by washing the cells in fresh medium and passing cells through a smaller cell filter (pore size 70 μm).
Untouched T cells were isolated using the Pan T cell isolation kit (Miltenyi Biotech). Briefly, cells were counted and incubated with the required volume of antibody cocktail for 5 minutes at 4° C. before addition of microbeads and incubation for 10 minutes at 4° C. Labeled cells were retained in a magnetic column while unlabeled cells (T cells) passed through the column and were retained for use in the assay.
Cell viability was assessed by Trypan Blue exclusion and found to be >99% prior to transfer to plates. Isolated T cells were seeded out in 96 well plates at a density of 50,000 cells per well and allowed to incubate for 60 minutes in a humidified cell culture (37° C., 5% CO2) incubator prior to compound treatment. The media used for this assay (TexMACS, Miltenyi Biotech) was previously optimized for proliferation of T cells in serum free conditions.
Representative compounds of the invention (i.e., test compounds) were prepared as 30 mM stocks in 100% DMSO. Test compounds were initially diluted in media to yield 3 mM stocks before an additional 1:10 dilution in media was performed to yield working stocks of 300 μM (1% DMSO). Subsequent dilutions were performed in media (supplemented with 1% DMSO). When added to the assay plates (1:10 dilution), these yielded final concentrations in the assay plates of in 0.1% DMSO. The reference compound, Cyclosporin A, was prepared in an identical manner as above.
Unstimulated and Stimulated Control wells received an identical volume of TexMACS media/1% DMSO at this time, resulting in a final concentration of 0.1% DMSO across the plate. Mouse anti-CD3/anti-CD28 dynabeads were prepared (following the manufacturers' instructions) in TexMACS media and added to appropriate wells to achieve a final concentration of 1 bead per cell. Unstimulated Control wells then received an identical volume of TexMACS. Plates were centrifuged 72 hours after addition of dynabeads, (300×g for 3 minutes) to pellet the cells and 60% of the supernatant was removed to a fresh plate for analysis by ELISA. After removal of 60% of the supernatant for subsequent ELISA, cell proliferation was assessed using the CCK-8 assay.
Average response by the standard compound, cyclosporin A, was 1 uM.

[3] = test system: Rats (male, Sprague-Dawley); experiment: TNBS colitis assay in rats; assay type: in vivo; settings: 30 mg/kg dose, PO, QD for 7 days
Procedure: TNBS Colitis Assay of Representative Compounds in Rats Rats (male, Sprague-Dawley) were anaesthetized and a solution of TNBS (48 mg/kg) in ethanol, was instilled intra-rectally to induce colitis, 1 h after oral dosing of representative compounds of the invention (i.e., test compounds). Test compounds were dosed PO, QD for 7 days, using prednisolone as a reference standard. […] On Day 7, rats were euthanized and the colon was evaluated for length, weight, wall thickness, ulcer number and length and for the presence of adhesions and strictures. A colonic score was calculated based on the severity of the colonic parameters.

[4] = test system: rats (male, Wistar); experiment: Complete Freund's Adjuvant (CFA) model of inflammatory pain in rats; assay type: in vivo; settings: 30 mg/kg dose
Procedure: Representative compounds of the invention (i.e., test compounds) were tested in this model of inflammatory pain. The rats (male, Wistar) were acclimatized to the instruments (plantar test surface and dynamic plantar aesthesiometer) on two consecutive days prior to the initiation of the study. On Day 0, basal paw withdrawal latency and paw withdrawal threshold were taken and animals were randomized to different groups. Complete Freund's Adjuvant (CFA) at 1 mg/mL (0.1 mL) was injected into the plantar surface of right hind paw. Test compounds (3 or 30 mg/kg) were administered PO, twice (Day 0 and Day 1) or once, on Day 1 (24 h after CFA). Thermal hyperalgesia and mechanical allodynia were assessed at 0 (baseline), 1, 3 and 6 h after administration of the test compound on Day 1. Diclofenac was used as a reference compound, given once on Day 1.

[5] = test system: Mice (male, C57Bl/6); experiment: Bleomycin lung fibrosis; assay type: in vivo
From the text: Mice (male, C57BL/6) were randomized into treatment groups and fibrosis was induced by intratracheal administration of bleomycin. Treatment with representative compounds of the invention (i.e., test compounds) or reference standard (pirfenidone) was initiated on Day −1 and administered daily unto Day 7 or Day 21. For groups undergoing bronchoalveolar lavage (BAL), the trachea was cannulated and infused with ice cold Hank's Balanced Salt Solution (HBSS, pH 7.2). The collected lavage fluid was analyzed for cell numbers (total and differential counts) and levels of soluble TGFβ and collagen. For other groups, the lungs were either snap-frozen or formalin-fixed for further analyses.

Q: C=C1CC[C@H]2[C@H](CN)[C@@H]([C@@]3(C)Cc4cn[nH]c4C[C@@H]3CO)CC[C@]12C [Ia-1, ((5R,6S)-5-((3aS,4R,5S,7aS)-4-(aminomethyl)-7a-methyl-1-methyleneoctahydro-1H-inden-5-yl)-5-methyl-4,5,6,7-tetrahydro-1H-indazol-6-yl)methanol] was tested. Which EC50 [1] did it give?
A: The EC50 was 6 to 15 µM.

Q: What about the IC50 [2] of the same compound?
A: The IC50 was 6 to 15 µM.

Q: And the “inhibition of the colonic score” value [3]?
A: Its value is 36%.

Q: And the “increase in the paw withdrawal threshold” value [4]?
A: Its value is 31%.

Q: And the “reduction in BAL macrophages as compared to the vehicle” value ([5]; Day 7, 3.0 mg/kg dose)?
A: Its value is 41%.

Q: What about the “reduction in BAL macrophages as compared to the vehicle” value ([5]; Day 7, 30 mg/kg dose) of the same compound?
A: Its value is 35%.

Q: What about the reduction in fibrosis ([5]; Day 14, 30 mg/kg dose (first mention)) of the same compound?
A: The reduction in fibrosis was 31%.

Q: And the reduction in fibrosis ([5]; Day 14, 30 mg/kg dose (second mention))?
A: Its reduction in fibrosis is 34%.
